DC50 and Y data for eight compounds are collected here from patent US12103920B2, “Cereblon binding compounds, compositions thereof, and methods of treatment therewith” (Celgene Corporation, priority 2020, dated 2024).

The target in the experiment is T1, AR protein in VCaP cells (Homo sapiens, UniProt P10275).
T1 construct: endogenous in cells; host or cells: VCaP cells
T1 sequence (P10275 1-920): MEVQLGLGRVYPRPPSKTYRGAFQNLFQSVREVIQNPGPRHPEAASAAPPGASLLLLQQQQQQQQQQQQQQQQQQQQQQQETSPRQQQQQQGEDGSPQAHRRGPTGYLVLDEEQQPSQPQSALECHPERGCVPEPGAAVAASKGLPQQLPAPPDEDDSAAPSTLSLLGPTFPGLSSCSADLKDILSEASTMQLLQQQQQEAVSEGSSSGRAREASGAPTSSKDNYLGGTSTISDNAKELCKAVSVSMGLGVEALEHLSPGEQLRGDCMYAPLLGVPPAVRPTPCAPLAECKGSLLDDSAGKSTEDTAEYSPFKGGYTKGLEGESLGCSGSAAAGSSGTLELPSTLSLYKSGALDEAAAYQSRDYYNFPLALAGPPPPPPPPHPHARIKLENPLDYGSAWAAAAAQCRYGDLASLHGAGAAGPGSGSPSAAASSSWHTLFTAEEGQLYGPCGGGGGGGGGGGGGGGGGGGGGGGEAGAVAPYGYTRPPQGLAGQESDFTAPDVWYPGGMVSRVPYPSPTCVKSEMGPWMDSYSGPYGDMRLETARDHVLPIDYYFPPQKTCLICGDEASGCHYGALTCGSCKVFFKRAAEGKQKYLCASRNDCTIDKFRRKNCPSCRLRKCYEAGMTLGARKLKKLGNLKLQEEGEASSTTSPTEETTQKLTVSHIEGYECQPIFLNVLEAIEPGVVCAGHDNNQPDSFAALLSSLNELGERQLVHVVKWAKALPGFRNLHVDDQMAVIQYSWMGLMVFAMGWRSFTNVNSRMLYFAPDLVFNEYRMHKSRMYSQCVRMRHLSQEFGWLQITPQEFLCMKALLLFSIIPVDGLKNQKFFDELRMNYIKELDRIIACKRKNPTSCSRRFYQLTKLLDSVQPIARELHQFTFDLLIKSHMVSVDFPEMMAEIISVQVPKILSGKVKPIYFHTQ
Briefly: VCAP AR Degradation Assay. It counts as cell-based. Conditions: 24 h, AR ELISA; for DC50: concentration at 50% of DMSO control (50% AR degradation); for Y: lowest measured AR level normalized to DMSO control. Summed up: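 VCaP cells in DMEM with 8% FBS were treated 24 h at 37° C with a 10-point 1:3 series (top final 5 μM; 0.1% DMSO control). AR in lysates was measured by sandwich ELISA, normalized to DMSO as percent of control; DC50, EC50 and Ymin came from a four-parameter logistic fit.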
In general terms: An ELISA detects its analyte on a solid surface through an enzyme-linked reagent.

Where a name gives a salt, the structure may show the parent alone.

On to `CC1(C)C(=O)N(c2ccc(C#N)c(C(F)(F)F)c2)C(=S)N1[C@H]1CC[C@H](OCCN2CCN(CC(=O)Nc3cccc(NC4CCC(=O)NC4=O)c3)[C@H](C(F)(F)F)C2)CC1` (stereo partly drawn) [Cmpd 40, 2-((S)-4-(2-(((trans)-4-(3-(4-Cyano-3-(trifluoromethyl)phenyl)-5,5-dimethyl-4-oxo-2-thioxoimidazolidin-1-yl)cyclohexyl)oxy)ethyl)-2-(trifluoromethyl)piperazin-1-yl)-N-(3-((2,6-dioxopiperidin-3-yl)amino)phenyl)acetamide], for which the 50% degradation concentration (DC50) (usually the concentration giving 50% degradation) fell in the range of 10 to 100 nM and the Y entry is “*** (25%<Y<50%)”.
Consider `C[C@@H]1C[C@@H](CCO[C@H]2CC[C@H](N3C(=S)N(c4cnc(C#N)c(C(F)(F)F)c4)C(=O)C3(C)C)CC2)C[C@H](C)N1CC(=O)Nc1cccc(NC2CCC(=O)NC2=O)c1` (stereo partly drawn) [Cmpd 22, 2-((2S,4s,6R)-4-(2-(((trans)-4-(3-(6-Cyano-5-(trifluoromethyl)pyridin-3-yl)-5,5-dimethyl-4-oxo-2-thioxoimidazolidin-1-yl)cyclohexyl)oxy)ethyl)-2,6-dimethylpiperidin-1-yl)-N-(3-((2,6-dioxopiperidin-3-yl)amino)phenyl)acetamide], for which the DC50 is not above 5 nM and the Y entry is reported as “* (0<Y≤15%)”.
For `C[C@@H]1C[C@H](CCO[C@H]2CC[C@H](N3C(=S)N(c4ccc(C#N)c(C(F)(F)F)c4)C(=O)C3(C)C)CC2)C[C@H](C)N1CC(=O)Nc1cccc(NC2CCC(=O)NC2=O)c1` (stereo partly drawn) [Cmpd 16, 2-((2R,4r,6S)-4-(2-((trans-4-(3-(4-Cyano-3-(trifluoromethyl)phenyl)-5,5-dimethyl-4-oxo-2-thioxoimidazolidin-1-yl)cyclohexyl)oxy)ethyl)-2,6-dimethylpiperidin-1-yl)-N-(3-((2,6-dioxopiperidin-3-yl)amino)phenyl)acetamide hydrochloride], in that order: 5 to 10 nM and “* (0<Y≤15%)”.
For `C[C@@H]1CN(CCCC[C@H]2CC[C@H](N3C(=S)N(c4ccc(C#N)c(C(F)(F)F)c4)C(=O)C3(C)C)CC2)C[C@H](C)N1CC(=O)Nc1cccc(NC2CCC(=O)NC2=O)c1` (stereo partly drawn) [Cmpd 17, 2-((2R,6S)-4-(4-(trans-4-(3-(4-Cyano-3-(trifluoromethyl)phenyl)-5,5-dimethyl-4-oxo-2-thioxoimidazolidin-1-yl)cyclohexyl)butyl)-2,6-dimethylpiperazin-1-yl)-N-(3-((2,6-dioxopiperidin-3-yl)amino)phenyl)acetamide hydrochloride], in that order: 10 to 100 nM and “*** (25%<Y<50%)”.
On to `CC1(C)C(=O)N(c2cnc(C#N)c(C(F)(F)F)c2)C(=S)N1[C@H]1CC[C@H](OCCN2CCN(CC(=O)Nc3cccc(NC4CCC(=O)NC4=O)c3)[C@@H](C(F)(F)F)C2)CC1` (stereo partly drawn) [Cmpd 20, 2-((R)-4-(2-((trans-4-(3-(6-Cyano-5-(trifluoromethyl)pyridin-3-yl)-5,5-dimethyl-4-oxo-2-thioxoimidazolidin-1-yl)cyclohexyl)oxy)ethyl)-2-(trifluoromethyl)piperazin-1-yl)-N-(3-((2,6-dioxopiperidin-3-yl)amino)phenyl)acetamide hydrochloride], for which the DC50 was not above 5 nM and the Y result is recorded as “* (0<Y≤15%)”.
Take `C[C@@H]1CN(CCO[C@H]2CC[C@H](N3C(=S)N(c4cnc(C#N)c(Cl)c4)C(=O)C3(C)C)CC2)C[C@H](C)N1CC(=O)Nc1cccc(NC2CCC(=O)NC2=O)c1` (stereo partly shown) [Cmpd 8, hydrochloride]: the DC50 was in the range of 5 to 10 nM and the Y entry is listed as “*** (25%<Y<50%)”.
For `C[C@@H]1CN(CCC[C@H]2CC[C@H](N3C(=S)N(c4ccc(C#N)c(C(F)(F)F)c4)C(=O)C3(C)C)CC2)C[C@H](C)N1CC(=O)Nc1cc(NC2CCC(=O)NC2=O)ccc1F` (stereo partly drawn) [Cmpd 39, 2-((2R,6S)-4-(3-((trans)-4-(3-(4-Cyano-3-(trifluoromethyl)phenyl)-5,5-dimethyl-4-oxo-2-thioxoimidazolidin-1-yl)cyclohexyl)propyl)-2,6-dimethylpiperazin-1-yl)-N-(5-((2,6-dioxopiperidin-3-yl)amino)-2-fluorophenyl)acetamide], in that order: 10 to 100 nM and “*** (25%<Y<50%)”.
As to `C[C@@H]1CN(CCCO[C@H]2CC[C@H](N3C(=S)N(c4ccc(C#N)c(Cl)c4)C(=O)C3(C)C)CC2)C[C@H](C)N1CC(=O)Nc1cccc(NC2CCC(=O)NC2=O)c1` (stereo partly drawn) [Cmpd 9, 2-((2R,6S)-4-(3-((trans-4-(3-(3-Chloro-4-cyanophenyl)-5,5-dimethyl-4-oxo-2-thioxoimidazolidin-1-yl)cyclohexyl)oxy)propyl)-2,6-dimethylpiperazin-1-yl)-N-(3-((2,6-dioxopiperidin-3-yl)amino)phenyl)acetamide hydrochloride], the DC50 is not above 5 nM and the Y entry is recorded as “*** (25%<Y<50%)”.
